Molecular target: human FXR (NR1H4) (Homo sapiens (Human), UniProt Q96RI1)
Experiment: Human FXR (NR1H4) Assay (luciferase reporter, Indigo Bioscience kit); as to Efficacy (%): efficacy normalized to CDCA set as 100%
Format: cell-based
Conditions: for EC50: FXR agonistic potency range, CHO reporter cells expressing human NR1H4, 22 hours incubation; for Emax: read-out: Efficacy (%)
Text: Assays Human FXR (NR1H4) Assay
Determination of a ligand mediated Gal4 promoter driven transactivation to quantify ligand binding mediated activation of FXR. FXR Reporter Assay kit purchased from Indigo Bioscience (Catalogue number: IB00601) to determine the potency and efficacy of compound developed by Enanta that can induce FXR activation. The principle application of this reporter assay system is to quantify functional activity of human FXR. The assay utilizes non-human mammalian cells, CHO (Chinese hamster ovary) cells engineered to express human NR1H4 protein (referred to as FXR). Reporter cells also incorporate the cDNA encoding beetle luciferase which catalyzes the substrates and yields photon emission. Luminescence intensity of the reaction is quantified using a plate-reading luminometer, Envision. Reporter Cells include the luciferase reporter gene functionally linked to an FXR responsive promoter. Thus, quantifying changes in luciferase expression in the treated reporter cells provides a sensitive surrogate measure of the changes in FXR activity. […] The assay is according to the manufacturer's instructions. In brief, the assay was performed in white, 96 well plates using final volume of 100 ul containing cells with different doses of compounds. Retrieve Reporter Cells from −80° C. storage. Perform a rapid thaw of the frozen cells by transferring a 10 ml volume of 37° C. cell recovery medium into the tube of frozen cells. Recap the tube of Reporter Cells and immediately place it in a 37° C. water bath for 5-10 minutes. Retrieve the tube of Reporter Cell Suspension from the water bath. Sanitize the outside surface of the tube with a 70% alcohol swab, and then transfer it into the cell culture hood. Dispense 90 μl of cell suspension into each well of the 96-well Assay Plate. Transfer the plate into 37° C. incubator, allowing the cells adherent to the bottom of the well. Dilute compounds in Dilution Plate (DP), and administrate to cells at Assay Plate (AP). DMSO content of the samples was kept at 0.2%. Cells were incubated for additional 22 hours before luciferase activities were measured. Thirty minutes before intending to quantify FXR activity, remove Detection Substrate and Detection Buffer from the refrigerator and place them in a low-light area so that they may equilibrate to room temperature. Remove the plate's lid and discard all media contents by ejecting it into an appropriate waste container. Gently tap the inverted plate onto a clean absorbent paper towel to remove residual droplets. Cells will remain tightly adhered to well bottoms. Add 100 μl of luciferase detection reagent to each well of the assay plate. Allow the assay plate to rest at room temperature for at least 5 minutes following the addition of LDR. Set the instrument (Envision) to perform a single 5 second “plate shake” prior to reading the first assay well. Read time may be 0.5 second (500 mSec) per well.

human FXR (NR1H4), sequence (Q96RI1 whole entry): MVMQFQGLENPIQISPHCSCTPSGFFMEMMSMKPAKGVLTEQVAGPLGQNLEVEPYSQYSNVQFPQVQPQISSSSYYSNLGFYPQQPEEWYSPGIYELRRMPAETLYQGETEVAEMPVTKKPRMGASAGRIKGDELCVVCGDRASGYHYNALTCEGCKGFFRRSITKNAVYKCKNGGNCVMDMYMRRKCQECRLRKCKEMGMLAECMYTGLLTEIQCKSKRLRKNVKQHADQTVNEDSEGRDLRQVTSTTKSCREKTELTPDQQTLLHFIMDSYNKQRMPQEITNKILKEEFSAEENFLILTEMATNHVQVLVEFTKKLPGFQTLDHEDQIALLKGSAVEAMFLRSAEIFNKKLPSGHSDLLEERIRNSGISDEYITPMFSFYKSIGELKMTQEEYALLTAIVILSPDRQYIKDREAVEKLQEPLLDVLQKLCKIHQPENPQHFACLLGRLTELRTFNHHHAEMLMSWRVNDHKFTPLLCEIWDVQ

Structure (SMILES) | EC50 [nM] | Emax [%]
CC[C@H]1[C@@H](O)[C@@H]2[C@H](CC[C@]3(C)[C@@H]([C@H](C)C/C=C/c4ccccc4-c4nnn[nH]4)CC[C@@H]23)[C@@]2(C)CC[C@@H](O)C[C@@H]12 [Example 30] | 100 to 1000 | 332
CC[C@H]1[C@@H](O)[C@@H]2[C@H](CC[C@]3(C)[C@@H]([C@H](C)Cc4nc5cccc(C(=O)OC)c5[nH]4)CC[C@@H]23)[C@@]2(C)CC[C@@H](O)C[C@@H]12 [Example 31] | 1000 to 10000 | 34
CC[C@H]1[C@@H](O)[C@@H]2[C@H](CC[C@]3(C)[C@@H]([C@H](C)Cc4nc5cccc(C(=O)O)c5[nH]4)CC[C@@H]23)[C@@]2(C)CC[C@@H](O)C[C@@H]12 [Example 32] | 1000 to 10000 | 24
CC[C@H]1[C@@H](O)[C@@H]2[C@H](CC[C@]3(C)[C@@H]([C@H](C)CC4CC4c4cccc(C(=O)O)c4)CC[C@@H]23)[C@@]2(C)CC[C@@H](O)C[C@@H]12 (stereo partly drawn) [Example 33] | 1000 to 10000 | 229
CC[C@H]1[C@@H](O)[C@@H]2[C@H](CC[C@]3(C)[C@@H]([C@H](C)CC4CC4c4ccc(C(=O)O)cc4)CC[C@@H]23)[C@@]2(C)CC[C@@H](O)C[C@@H]12 (stereo partly drawn) [Example 34] | 1000 to 10000 | 195
CC[C@H]1[C@@H](O)[C@@H]2[C@H](CC[C@]3(C)[C@@H]([C@H](C)CCOc4ccc(F)cc4C(=O)O)CC[C@@H]23)[C@@]2(C)CC[C@@H](O)C[C@@H]12 [Example 35] | 100 to 1000 | 203

Reference: patent publication US10323060B2, “Benzoic acid derivatives of bile acid as FXR/TGR5 agonists and methods of use thereof” (ENANTA PHARMACEUTICALS, INC., priority 2016, dated 2019)
